From patent publication US10010574B2, “Silk peptide for improving neuroprotective and neurofunctional effects and a method of its preparation” (BRAINGUARD CO., LTD., priority 2004, dated 2018)

Tested on: depression animal model
Experiment: Forced swimming test (depression animal model)
Type: in vivo, Sprague Dawley rats
Settings: P<0.05
Method: Four Sprague Dawley rats (140-180 g, Dae Han BioLink Co., Korea) each box were placed under constant condition (temperature: 25±1° C., relative humidity: 60±10%), and fed with unlimited water and food for 1 week. Fifty rats were selected for experiment among the rats by excluding ones that were undeveloped, show less motion or abnormal behavior in forced swimming test.
As a standard method for behavioral despair test, a forced swimming test (FST) was used in this experiment, which is known as principal test for verify anti-depression efficacy.
A rat was placed for 15 minutes in a transparent cylindrical water tank with 40 cm of height and 18 cm of diameter, which was filled with 15 cm deep water. […] The immobilization state typically refers to a state that a rat pushes only its head above the surface and was in a minimum motion for keeping itself afloat. After forced swimming test, the rat was dried at 37° C. for 30 minutes and returned to the box.
After 24 hours, the second forced swimming was performed for 5 minutes under the same condition with the first forced swimming test, and total immobilization time was measured. […] The immobilization time was measured by recording total process of the forced swimming and comparing between the control group and the experiment group. Values measured by 3 different analyzers were averaged and used as an analysis data. […]

CN(C)CCCN1c2ccccc2CCc2ccccc21 [imipramine]
Average immobilization time, 7-day repeated administration (oral one time a day for 7 days, FIG. 23): significantly decreased
Average immobilization time, one time urgent administration (silk peptide 1 g/kg oral, imipramine 20 mg/kg, 1 hour before second forced swimming, FIG. 22): significantly decreased
